Read-outs that look alike come from different tables or passages of the source.
Experiments:
in vivo = details: SCID, mouse
Protocol: Animals were randomized into 2 groups when tumors reached 100 mm diameter. Group A assigned single dosing. […] Drug concentration was measured in tumor and plasma after last dose at the following time points: 0, 4, 8, 24, 48, 72 hrs. […] Concentration of voruciclib in plasma is in units of μg/ml and in μg/g for tumors.

NCI-H358 cells = assay: 2D culture dose response; assay type: cell-based; details: Homo sapiens
MYC protein in AML cells = details: 3 hr; cited from earlier work
[1] = PK of voruciclib, daily dosing continuously (Table 4); assay type: in vivo; details: human, plasma, oral; for Vd/F: read-out: Vz/F; for half-life: read-out: t½ (converted); for Tmax: median
From the text: Voruciclib half life is designated as t½ in the tables (expressed in hours).
Voruciclib volume of distribution is designated as Vz/F (expressed in liters).

[2] = tested on: cancer cell lines with KRAS mutations (G12A, G12C, G12D, G12S, G12V, G13C, G13D, Q61H); assay: MTS and Cell Titer Glo growth assays in ~20 KRAS mutant cancer cell lines; assay type: cell-based; details: ~20 cancer cell lines with KRAS mutations
Protocol: (§1) Voruciclib is an oral inhibitor of CDKs 9, 4, 6, and 1 currently being tested in Phase 1B clinical trials for B-cell malignancies and acute myeloid leukemia. Voruciclib inhibition of CDK9 leads to decreased expression of transcriptional targets of RNA Pol II, such as Mcl1 and MYC. To test whether Voruciclib could be effective in cancers driven by dysregulated KRAS-MYC signaling, ˜20 cancer cell lines with KRAS mutations (G12A, G12C, G12D, G12S, G12V, G13C, G13D, Q61H) were treated in preclinical studies with Voruciclib. MTS and Cell Titer Glo assays were used to monitor growth in vitro. […] To investigate MYC protein stability, MIA PACA-2 (G12C) cells were treated with 4 μM Voruciclib for 5-240 min, followed by SDS-PAGE and Western Blotting analysis with α-MYC and α-pSer62-MYC antibodies. […] A 60% decrease in pSer62 was observed after 5 min that reached 80% by 60 min. […] The ability of Voruciclib to inhibit tumor growth in vivo was also tested in murine xenograft models. KRAS mutant human cancer cells HCT-116 (CRC, KRAS G13D), SW-480 (CRC, KRAS G12V), and H-460 (NSCLC, KRAS Q61H) were injected subcutaneously into SCID mice. Once tumors reached 5-10 mm in diameter, Voruciclib or vehicle were administered orally at 50, 100, or 200 mg/kg OD for 11-14 days. Tumors were measured every 2-3 days, and growth inhibition relative to control was calculated. […]

[3] = tested on: MYC (pSer62 and total) in MIA PACA-2 (G12C) cells; assay: Western blot of MYC and pSer62-MYC in MIA PACA-2 cells; assay type: cell-based; details: 4 μM Voruciclib
Protocol: Voruciclib is an oral inhibitor of CDKs 9, 4, 6, and 1 currently being tested in Phase 1B clinical trials for B-cell malignancies and acute myeloid leukemia. Voruciclib inhibition of CDK9 leads to decreased expression of transcriptional targets of RNA Pol II, such as Mcl1 and MYC. To test whether Voruciclib could be effective in cancers driven by dysregulated KRAS-MYC signaling, ˜20 cancer cell lines with KRAS mutations (G12A, G12C, G12D, G12S, G12V, G13C, G13D, Q61H) were treated in preclinical studies with Voruciclib. MTS and Cell Titer Glo assays were used to monitor growth in vitro. […] To investigate MYC protein stability, MIA PACA-2 (G12C) cells were treated with 4 μM Voruciclib for 5-240 min, followed by SDS-PAGE and Western Blotting analysis with α-MYC and α-pSer62-MYC antibodies. […] A 60% decrease in pSer62 was observed after 5 min that reached 80% by 60 min. […] The ability of Voruciclib to inhibit tumor growth in vivo was also tested in murine xenograft models. KRAS mutant human cancer cells HCT-116 (CRC, KRAS G13D), SW-480 (CRC, KRAS G12V), and H-460 (NSCLC, KRAS Q61H) were injected subcutaneously into SCID mice. Once tumors reached 5-10 mm in diameter, Voruciclib or vehicle were administered orally at 50, 100, or 200 mg/kg OD for 11-14 days. Tumors were measured every 2-3 days, and growth inhibition relative to control was calculated.
FIG. 32—Voruciclib causes rapid inhibition MYC pSer62 phosphorylation and reduces MYC protein levels. Immunoblot analyses of c-MYC, phospho-c-MYC (Ser62), and actin in MIA Paca-2 KRAS G12C mutant PDAC cells. (FIG. 32A) Cells were treated with vehicle control, voruciclib (VOR, 4 μM), or the AZD4573 (AZD, a CDK9 inhibitor, 400 nM) for the indicated times. (FIG. 32B) Cells were treated with various concentrations of voruciclib or AZD4573 for the indicated time. Relative densitometry values are indicated.

Solid Tumors = assay: Monotherapy Phase 1 study in solid tumors, daily continuously schedule; assay type: in vivo, human
SW-480 (CRC, KRAS G12V) = assay: Murine xenograft tumor growth inhibition, SW-480; assay type: in vivo, SCID mice; details: SW-480 xenograft; orally 50, 100, or 200 mg/kg OD for 11-14 days; all doses
Protocol: as §1

[4] = 75 mg, Day 1, daily dosing continuously, mean
[5] = 75 mg, Day 15, daily dosing continuously, mean
[6] = 150 mg, Day 1, daily dosing continuously, mean
[7] = 150 mg, Day 15, daily dosing continuously, n = 1
[8] = 250 mg, Day 1, daily dosing continuously, mean
[9] = 250 mg, Day 15, daily dosing continuously, mean
[10] = 350 mg, Day 1, daily dosing continuously, mean
[11] = 350 mg, Day 15, daily dosing continuously, mean
[12] = 500 mg, Day 1, daily dosing continuously, mean
[13] = 500 mg, Day 15, daily dosing continuously, mean
[14] = Daily continuously schedule, 75 to 500 mg, 39 pts

## CN1CC[C@@H](c2c(O)cc(O)c3c(=O)cc(-c4ccc(C(F)(F)F)cc4Cl)oc23)[C@@H]1CO [Voruciclib, (+)-trans-2-(2-Chloro-4-trifluoromethylphenyl)-5,7-dihydroxy-8-(2-hydroxymethyl-1-methylpyrrolidin-3-yl)-chromen-4-one]
In vivo
  Kp: > 5
NCI-H358 cells
  IC50: 600 nM
MYC protein in AML cells
  MYC protein: decrease in MYC protein
[1]; [4]
  AUC(0-inf): 3420 ng·h/mL
  Cmax: 125 ng/mL
  Vd/F: 860 L
  half-life: 21.8 h
[1]; 75 mg, Day 1, daily dosing continuously, mean, read-out: AUC0-24
  AUC(0-t): 1730 ng·h/mL
[1]; 75 mg, Day 1, daily dosing continuously, mean, read-out: AUC0-t
  AUC(0-t): 1730 ng·h/mL
[1]; 75 mg, Day 1, daily dosing continuously
  Tmax: 4 h
[1]; [5]
  AUC(0-inf): 27200 ng·h/mL
  Cmax: 331 ng/mL
  Vd/F: 982 L
  half-life: 359 h
[1]; 75 mg, Day 15, daily dosing continuously, mean, read-out: AUC0-24
  AUC(0-t): 5570 ng·h/mL
[1]; 75 mg, Day 15, daily dosing continuously, mean, read-out: AUC0-t
  AUC(0-t): 5570 ng·h/mL
[1]; 75 mg, Day 15, daily dosing continuously
  Tmax: 2 h
[1]; [6]
  AUC(0-inf): 15600 ng·h/mL
  Cmax: 258 ng/mL
  Vd/F: 579 L
  half-life: 39.6 h
[1]; 150 mg, Day 1, daily dosing continuously, mean, read-out: AUC0-24
  AUC(0-t): 4850 ng·h/mL
[1]; 150 mg, Day 1, daily dosing continuously, mean, read-out: AUC0-t
  AUC(0-t): 4850 ng·h/mL
[1]; 150 mg, Day 1, daily dosing continuously
  Tmax: 6 h
[1]; 150 mg, Day 15, daily dosing continuously, mean
  Cmax: 755 ng/mL
[1]; 150 mg, Day 15, daily dosing continuously, mean, read-out: AUC0-24
  AUC(0-t): 16600 ng·h/mL
[1]; 150 mg, Day 15, daily dosing continuously, mean, read-out: AUC0-t
  AUC(0-t): 16600 ng·h/mL
[1]; 150 mg, Day 15, daily dosing continuously
  Tmax: 6 h
[1]; [7]
  AUC(0-inf): 164000 ng·h/mL
  Vd/F: 174 L
  half-life: 132 h
[1]; [8]
  AUC(0-inf): 16400 ng·h/mL
  Cmax: 472 ng/mL
  Vd/F: 766 L
  half-life: 34.4 h
[1]; 250 mg, Day 1, daily dosing continuously, mean, read-out: AUC0-24
  AUC(0-t): 6110 ng·h/mL
[1]; 250 mg, Day 1, daily dosing continuously, mean, read-out: AUC0-t
  AUC(0-t): 6110 ng·h/mL
[1]; 250 mg, Day 1, daily dosing continuously
  Tmax: 4 h
[1]; [9]
  AUC(0-inf): 54500 ng·h/mL
  Cmax: 1050 ng/mL
  Vd/F: 259 L
  half-life: 38.8 h
[1]; 250 mg, Day 15, daily dosing continuously, mean, read-out: AUC0-24
  AUC(0-t): 18500 ng·h/mL
[1]; 250 mg, Day 15, daily dosing continuously, mean, read-out: AUC0-t
  AUC(0-t): 18500 ng·h/mL
[1]; 250 mg, Day 15, daily dosing continuously
  Tmax: 4 h
[1]; [10]
  AUC(0-inf): 134000 ng·h/mL
  Cmax: 623 ng/mL
  Vd/F: 155 L
  half-life: 129 h
[1]; 350 mg, Day 1, daily dosing continuously, mean, read-out: AUC0-24
  AUC(0-t): 10400 ng·h/mL
[1]; 350 mg, Day 1, daily dosing continuously, mean, read-out: AUC0-t
  AUC(0-t): 10400 ng·h/mL
[1]; 350 mg, Day 1, daily dosing continuously
  Tmax: 6 h
[1]; [11]
  AUC(0-inf): 164000 ng·h/mL
  Cmax: 1490 ng/mL
  Vd/F: 77.6 L
  half-life: 72.5 h
[1]; 350 mg, Day 15, daily dosing continuously, mean, read-out: AUC0-24
  AUC(0-t): 26700 ng·h/mL
[1]; 350 mg, Day 15, daily dosing continuously, mean, read-out: AUC0-t
  AUC(0-t): 26700 ng·h/mL
[1]; 350 mg, Day 15, daily dosing continuously
  Tmax: 4 h
[1]; [12]
  AUC(0-inf): 41000 ng·h/mL
  Cmax: 1140 ng/mL
  Vd/F: 72.5 L
  half-life: 24.8 h
[1]; 500 mg, Day 1, daily dosing continuously, mean, read-out: AUC0-24
  AUC(0-t): 16400 ng·h/mL
[1]; 500 mg, Day 1, daily dosing continuously, mean, read-out: AUC0-t
  AUC(0-t): 16400 ng·h/mL
[1]; 500 mg, Day 1, daily dosing continuously
  Tmax: 6 h
[1]; [13]
  AUC(0-inf): 108000 ng·h/mL
  Cmax: 2250 ng/mL
  Vd/F: 51 L
  half-life: 42.4 h
[1]; 500 mg, Day 15, daily dosing continuously, mean, read-out: AUC0-24
  AUC(0-t): 40500 ng·h/mL
[1]; 500 mg, Day 15, daily dosing continuously, mean, read-out: AUC0-t
  AUC(0-t): 40500 ng·h/mL
[1]; 500 mg, Day 15, daily dosing continuously
  Tmax: 2 h
[2]
  viability (growth in vitro): decreased viability in all cell lines tested
[3]; 5 or 15 min
  decrease in total MYC protein: no decrease in total MYC protein
[3]; 60 min
  reduction in total MYC: 10%
[3]; 240 min
  reduction in total MYC: 50%
[3]; after 5 min
  decrease in pSer62 (MYC): 60%
[3]; by 60 min
  decrease in pSer62 (MYC): 80%
Solid Tumors; [14]
  best response: 12 SD lasting a median of 15 weeks
  disease control rate: 31%
Solid Tumors; Phase 1 daily dosing study, 17/25 patients tested
  patients with decreased c-MYC expression: 68%
SW-480 (CRC, KRAS G12V)
  tumor growth inhibition relative to control: > 50%

Reference: patent US20240016781A1, “TREATMENT OF KRAS MUTANT CANCERS” (MEI Pharma, Inc., priority 2020, published 2024)
